Assay results published in patent US20190054103A1, “METHOD OF TREATMENT OF TP53 WILD-TYPE TUMORS WITH 2',2'-DIFLUORO-5-AZA-2'-DEOXYCYTIDINE OR PRODRUGS THEREOF” (priority 2016, published 2019).

Assays:
786-0 = test: NCI 60 Cell Line Panel growth inhibition; assay type: cell-based, human; settings: 786-0, Renal cancer, TP53 null/mutant
Text: (§1) The NCI-60 Cell Line Panel was assembled by the National Cancer Institute as an in vitro anticancer drug screen. The panel comprises human cancer cell lines representing nine different tissues of origin: breast, colon, central nervous system, renal, lung, melanoma, ovarian, prostate, and hematogenous. […] See, e.g., Leroy et al. “Analysis of TP53 Mutation Status in Human Cancer Cell Lines: a Reassesment” Hum Mutat 2014 35(6): 756-765.

BT-549 = test: NCI 60 Cell Line Panel growth inhibition; assay type: cell-based, human; settings: BT-549, Breast cancer, TP53 null/mutant
Text: as §1

LOX IMVI = test: NCI 60 Cell Line Panel growth inhibition; assay type: cell-based, human; settings: Melanoma, TP53 wild type
Text: as §1

MCF7 = test: NCI 60 Cell Line Panel growth inhibition; assay type: cell-based, human; settings: MCF7, Breast cancer, TP53 wild type
Text: as §1

MDA-MB-231 = test: NCI 60 Cell Line Panel growth inhibition; assay type: cell-based, human; settings: MDA-MB-231, Breast cancer, TP53 null/mutant
Text: as §1

SNB-19 = test: NCI 60 Cell Line Panel growth inhibition; assay type: cell-based, human; settings: SNB-19, CNS cancer, TP53 null/mutant
Text: as §1

[1] = system: TP53 WT colon cancer cell line Ls174T; test: CellTiter-Glo growth inhibition, Ls174T; assay type: cell-based; settings: Homo sapiens, 72-hour exposure, FIG. 1
Experimental: Two examples of additional comparisons are provided below for colon cancer cell lines (TP53 WT colon cancer cell line Ls174T and TP53 WT colon cancer cell line LoVo).
In these assays, two 96 well plates of each cell line were seeded with 5,000 cells per well in a total volume of […] per well and left incubating overnight. The following day, the cells were exposed to different concentrations of NUC013. At the end of a 72-hour exposure period, the plates were removed for CellTiter-Glo® assay. Luminescence was recorded on a Synergy 4.0.

[2] = NUC013 administered IV to mice
[3] = system: LoVo (colon cancer, TP WT); test: Xenograft model, nude mice implanted with LoVo; settings: for mean tumor volumes compared to saline control: study days 9 through 51, FIG. 3B

Nc1ncn([C@@H]2O[C@H](CO)[C@@H](O)C2(F)F)c(=O)n1 [NUC013, 4-amino-1-((2R,4R,5R)-3,3-difluoro-4-hydroxy-5-(hydroxymethyl)tetrahydrofuran-2-yl)-1,3,5-triazin-2(1H)-one]
Growth (%) at 10 μM (786-0): 26.29%
Growth (%) at 10 μM (BT-549): 53.63%
Growth (%) at 10 μM (LOX IMVI): 34.53%
Growth (%) at 10 μM (MCF7): 20.74%
Growth (%) at 10 μM (MDA-MB-231): 79.98%
Growth (%) at 10 μM (SNB-19): 58.88%
GI50 [1]: 1300 nM
half-life [2]: 20 min
survival compared to saline controls ([3]; 5.8 mg/kg): no difference in survival
mean tumor weight lower compared to controls ([3]; 5.8 mg/kg, 8 days following the end of treatment): 24.3%
mean tumor volumes compared to saline control ([3]; 20 mg/kg): significantly lower
mean tumor volumes compared to saline control ([3]; 40 mg/kg): significantly lower
